These results are taken from ChEMBL document CHEMBL1201862, “PubChem BioAssay data set” (2004).

Among the test systems are ACHN; BT-549; COLO 205; EKVX; HCT-116; HL-60; HOP-62; HOP-92; Hs-578T; Malme-3M; NCI-H226; NCI-H23; NCI-H460; NCI/ADR-RES; OVCAR-4; PC-3; SR; SW-620; UACC-62.
Common to all, as to assay: growth of human tumour cells (NCI), 48 h

Molecules are shown by their SMILES.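 Growth conditions: 96-well plates. Treatment: test compound, 48 hours, 5 concentrations. Analysis: linear interpolation between bracketing concentrations; unreached endpoints set to highest concentration. Abbreviation: GI50, concentration required for 50% inhibition of growth.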 Calls of active or inactive are those of the source. No stated cut-off is given here; in the data, active = GI50 up to about 1.1 µM and inactive = higher.

Regarding `CC1=NN(C(=O)CC(=O)Nc2ccc(C)cc2)C(=O)C1/N=N\c1ccc(S(=O)(=O)c2ccc(/N=N/C3C(=O)N(C(=O)CC(=O)Nc4ccc(C)cc4)N=C3C)cc2)cc1` (stereo not given), the GI50 is 62.8 µM (inactive) in the assay on ACHN; > 100 µM (inactive) with BT-549; > 100 µM (inactive) in the assay with COLO 205; > 100 µM (inactive) in the assay on EKVX; 43.4 µM (inactive) in the assay with HCT-116; 16.4 µM (inactive) with HL-60. Besides, the GI50 is > 100 µM (inactive) in the assay on HOP-62; > 100 µM (inactive) in the assay on HOP-92; 93.8 µM (inactive) in the assay on Hs-578T; 67 µM (inactive) in the assay on Malme-3M; > 100 µM (inactive) in the assay with NCI-H226; > 100 µM (inactive) with NCI-H23. Moreover, the GI50 in the assay on NCI-H460 is 38.5 µM (inactive); with NCI/ADR-RES, > 100 µM (inactive); in the assay with OVCAR-4, > 100 µM (inactive); in the assay on PC-3 it was 72.4 µM (inactive); with SR it was 27.5 µM (inactive); in the assay on SW-620, 32.7 µM (inactive). In addition, the GI50 with UACC-62 was 65.9 µM (inactive).
Take `CSC(=O)/C=C1\SS/C(=C\C(=O)SC)S1`: the GI50 with ACHN was 2.99 µM (inactive); with BT-549, 1.69 µM (inactive); in the assay on COLO 205 it was 6.31 µM (inactive); in the assay on EKVX, 2.4 µM (inactive); with HCT-116 it was 1.69 µM (inactive); in the assay with HL-60, 1.12 µM (active). Also, the GI50 with HOP-62 is 7.35 µM (inactive); in the assay on HOP-92, 2.83 µM (inactive); in the assay with Hs-578T, 3.05 µM (inactive); with Malme-3M it was 2.13 µM (inactive); in the assay with NCI-H226 it was 1.77 µM (inactive); with NCI-H23, 3.08 µM (inactive). Moreover, the GI50 was 2.26 µM (inactive) in the assay with NCI-H460; 2.34 µM (inactive) in the assay on NCI/ADR-RES; 3.75 µM (inactive) in the assay with OVCAR-4; 3.09 µM (inactive) in the assay with PC-3; 1.96 µM (inactive) in the assay with SR; 1.81 µM (inactive) in the assay on SW-620. Also, in the assay with UACC-62, the GI50 is 0.796 µM (active).
In the case of `O=[N+]([O-])C(=C/c1cccs1)/C(=C\c1cccs1)[N+](=O)[O-]`, the GI50 with ACHN was 0.543 µM (active); with BT-549, 1.35 µM (inactive); in the assay with COLO 205, 0.429 µM (active); with EKVX, 2.29 µM (inactive); in the assay on HCT-116 it was 1.11 µM (active); in the assay on HL-60, 0.0246 µM (active). Also, the GI50 is 2.47 µM (inactive) in the assay on HOP-62; 0.802 µM (active) with HOP-92; 1.13 µM (inactive) in the assay with Hs-578T; 1.03 µM (active) in the assay with Malme-3M; 2.77 µM (inactive) with NCI-H226; 0.787 µM (active) in the assay on NCI-H23. Further, the GI50 with NCI-H460 is 0.597 µM (active); with NCI/ADR-RES, 0.54 µM (active); in the assay on OVCAR-4, 1.87 µM (inactive); in the assay with PC-3, 0.575 µM (active); in the assay on SR it was 0.0719 µM (active); with SW-620, 0.348 µM (active). For the same molecule, the GI50 in the assay with UACC-62 is 0.778 µM (active).
Consider `COc1ccc2c(c1)N(CCC1CCCCN1C)c1ccccc1S2` (stereo not given) [OXYRIDAZINE], for which the GI50 in the assay with ACHN is 13.8 µM (inactive); with BT-549, 16.1 µM (inactive); in the assay with COLO 205, 12.3 µM (inactive); with EKVX, 19.4 µM (inactive); in the assay with HCT-116 it was 12.8 µM (inactive); in the assay on HL-60 it was 9.14 µM (inactive). The GI50 in the assay on HOP-62 was 15.8 µM (inactive); in the assay on HOP-92, 9.08 µM (inactive); in the assay with Hs-578T, 10.3 µM (inactive); with Malme-3M it was 18.2 µM (inactive); in the assay with NCI-H226, 23.6 µM (inactive); in the assay with NCI-H23 it was 17.1 µM (inactive). Moreover, the GI50 with NCI-H460 is 7.46 µM (inactive); with NCI/ADR-RES it was 12 µM (inactive); with OVCAR-4, 11.1 µM (inactive); in the assay with PC-3, 10.8 µM (inactive); in the assay on SR it was 5.73 µM (inactive); in the assay on SW-620, 14.7 µM (inactive). The GI50 with UACC-62 was 12.6 µM (inactive).
On to `Cc1nnc(N/N=C2/C(=O)Nc3ccccc32)nc1O`, for which the GI50 with ACHN, in the assay with BT-549, with EKVX, in the assay on HCT-116, in the assay with HL-60 and with HOP-62 was > 100 µM (inactive) throughout. For the same molecule, the GI50 was > 100 µM (inactive) with HOP-92; > 100 µM (inactive) in the assay with Hs-578T; 72.8 µM (inactive) in the assay with Malme-3M; > 100 µM (inactive) with NCI-H226; > 100 µM (inactive) with NCI-H460; > 100 µM (inactive) in the assay on NCI/ADR-RES. The GI50 in the assay with OVCAR-4, in the assay with PC-3, in the assay with SR, in the assay with SW-620 and with UACC-62 was > 100 µM (inactive) throughout.
Consider `COc1ccc(Cn2c3c(cc(OC(C)=O)c2=O)Cc2ccccc2-3)cc1`, for which the GI50 is 7.91 µM (inactive) with ACHN; 11.2 µM (inactive) in the assay on BT-549; 20.6 µM (inactive) with COLO 205; 7.76 µM (inactive) with EKVX; 6.52 µM (inactive) in the assay with HCT-116; 5.64 µM (inactive) in the assay on HL-60. The GI50 is 14.9 µM (inactive) in the assay with HOP-62; 9.98 µM (inactive) in the assay on HOP-92; 20 µM (inactive) with Hs-578T; 10.9 µM (inactive) in the assay with Malme-3M; 14.3 µM (inactive) in the assay on NCI-H226; 10.5 µM (inactive) in the assay with NCI-H23. For the same molecule, the GI50 in the assay on NCI-H460 is 3.97 µM (inactive); with NCI/ADR-RES, 1.81 µM (inactive); with OVCAR-4, 9.95 µM (inactive); in the assay on PC-3, 8.41 µM (inactive); in the assay on SR, 2.14 µM (inactive); with SW-620, 6.64 µM (inactive). In the assay with UACC-62, the GI50 was 9.1 µM (inactive).
With `Cc1[nH]c2ccccc2c1/C=N/c1ccc(/N=C/c2c(C)[nH]c3ccccc23)cc1`, the GI50 with ACHN was 49.1 µM (inactive); with BT-549 it was 47.9 µM (inactive); in the assay with COLO 205, 12.9 µM (inactive); in the assay with EKVX it was 38.9 µM (inactive); in the assay on HCT-116, 17.5 µM (inactive); in the assay with HL-60, 14.7 µM (inactive). For the same molecule, the GI50 with HOP-62 was 25.1 µM (inactive); with HOP-92 it was 25.5 µM (inactive); in the assay with Hs-578T, 47 µM (inactive); in the assay on Malme-3M, 30.8 µM (inactive); in the assay on NCI-H226, 14 µM (inactive); in the assay on NCI-H23, 29.1 µM (inactive). Further, the GI50 with NCI-H460 was 41.2 µM (inactive); with NCI/ADR-RES, 80.5 µM (inactive); in the assay on OVCAR-4, 26.4 µM (inactive); in the assay on PC-3 it was 50.4 µM (inactive); with SR, 19.2 µM (inactive); in the assay with SW-620, 22.9 µM (inactive). For the same molecule, the GI50 in the assay with UACC-62 was 42.6 µM (inactive).
In the case of `O=C(Nc1cccc2cnccc12)c1cc2c(cc1Cl)Sc1nccn1S2(=O)=O`, the GI50 in the assay with ACHN is 28.3 µM (inactive); in the assay with BT-549 it was 10.4 µM (inactive); in the assay with COLO 205 it was 15.3 µM (inactive); in the assay with EKVX, 20.7 µM (inactive); with HCT-116, 4.74 µM (inactive); in the assay on HL-60 it was 4.62 µM (inactive). Also, the GI50 with HOP-62 is 14 µM (inactive); in the assay with HOP-92, 21.4 µM (inactive); in the assay with Hs-578T, 20.1 µM (inactive); in the assay with Malme-3M, 19.1 µM (inactive); in the assay on NCI-H226 it was 18.4 µM (inactive); in the assay with NCI-H23, 6.67 µM (inactive). In addition, the GI50 with NCI-H460 was 7.82 µM (inactive); with NCI/ADR-RES, 14.4 µM (inactive); in the assay with OVCAR-4, 15.2 µM (inactive); with PC-3, 23.3 µM (inactive); in the assay with SR it was 3.28 µM (inactive); in the assay on SW-620 it was 15.5 µM (inactive). The GI50 with UACC-62 was 12.4 µM (inactive).
Consider `CN(C)c1ccc(/C=c2\c3cc([N+](=O)[O-])ccc3n3c2cc(-c2ccccc2)[n+]3C)cc1`, for which the GI50 was 5.51 µM (inactive) in the assay with ACHN; 1.23 µM (inactive) in the assay with BT-549; 0.297 µM (active) with COLO 205; 0.998 µM (active) in the assay with EKVX; 0.885 µM (active) with HCT-116; 0.292 µM (active) in the assay on HL-60. For the same molecule, the GI50 is 2.04 µM (inactive) in the assay with HOP-62; 1.18 µM (inactive) with HOP-92; 1.62 µM (inactive) in the assay with Hs-578T; 0.55 µM (active) in the assay with Malme-3M; 2.75 µM (inactive) with NCI-H226; 2.75 µM (inactive) in the assay with NCI-H23. Moreover, the GI50 was 3.13 µM (inactive) in the assay on NCI-H460; 39.8 µM (inactive) in the assay on NCI/ADR-RES; 2.17 µM (inactive) in the assay on OVCAR-4; 1.91 µM (inactive) in the assay with PC-3; 0.29 µM (active) in the assay with SR; 0.836 µM (active) with SW-620. Also, in the assay with UACC-62, the GI50 is 0.678 µM (active).
Turning to `CCOC(=O)C(NC(=O)c1ccco1)(Nc1nc2ccc(OCC)cc2s1)C(F)(F)F` (stereo not given), the GI50 in the assay on ACHN is 26.8 µM (inactive); in the assay with BT-549, 28.6 µM (inactive); in the assay with COLO 205, 18.5 µM (inactive); in the assay with EKVX, 32.8 µM (inactive); with HCT-116, 27.3 µM (inactive); in the assay with HL-60, > 100 µM (inactive). Further, the GI50 is 15 µM (inactive) in the assay with HOP-92; 38.7 µM (inactive) in the assay with Hs-578T; 37.2 µM (inactive) in the assay on Malme-3M; 35.1 µM (inactive) with NCI-H226; 27.3 µM (inactive) in the assay with NCI-H23; 28.1 µM (inactive) in the assay with NCI-H460. In addition, the GI50 is 25.8 µM (inactive) in the assay on NCI/ADR-RES; 30.1 µM (inactive) in the assay with OVCAR-4; 25.3 µM (inactive) in the assay on PC-3; 19.3 µM (inactive) in the assay with SR; 61.5 µM (inactive) in the assay with SW-620; 35.6 µM (inactive) with UACC-62.
In the case of `O=C(CCNC(=O)OCc1ccccc1)OCCCNC(=O)OCc1ccccc1`, the GI50 in the assay on ACHN, in the assay on BT-549, with COLO 205, with HCT-116, with HL-60 and in the assay on HOP-62 was > 100 µM (inactive) throughout. The GI50 in the assay on HOP-92, with Hs-578T, in the assay on Malme-3M, with NCI-H226, with NCI-H23 and in the assay on NCI-H460 was > 100 µM (inactive) throughout. Also, the GI50 in the assay with NCI/ADR-RES, in the assay with OVCAR-4, in the assay on PC-3, in the assay on SR, in the assay on SW-620 and with UACC-62 was > 100 µM (inactive) throughout.
